In ChEMBL document CHEMBL1201862, “PubChem BioAssay data set” (2004):
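96-well plates; 48 h exposure; 5 concentrations. Endpoints by linear interpolation between flanking doses. Not reached: highest tested concentration assigned. GI50: concentration for 50% inhibition of growth.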 Calls of active or inactive are those of the source. Cut-off read from the data, not from the text of the source: active = GI50 up to about 1.1 µM and inactive = higher.

Tests used:
Assay in all cases: growth of human tumour cells (NCI), 48 h
SNB-19 = test system: SNB-19
K562 = test system: K562
RXF 393 = test system: RXF 393
NCI-H460 = test system: NCI-H460
BT-549 = test system: BT-549
SF-539 = test system: SF-539
SF-268 = test system: SF-268
HCT-15 = test system: HCT-15
CAKI-1 = test system: CAKI-1
A549 = test system: A549
HOP-62 = test system: HOP-62
T47D = test system: T47D
COLO 205 = test system: COLO 205
SW-620 = test system: SW-620
HOP-92 = test system: HOP-92
HCC 2998 = test system: HCC 2998
SK-MEL-5 = test system: SK-MEL-5
CCRF-CEM = test system: CCRF-CEM
Malme-3M = test system: Malme-3M

Row | SMILES | GI50 (SNB-19) | GI50 (K562) | GI50 (RXF 393) | GI50 (NCI-H460) | GI50 (BT-549) | GI50 (SF-539) | GI50 (SF-268) | GI50 (HCT-15) [µM] | GI50 (CAKI-1) | GI50 (A549) | GI50 (HOP-62) | GI50 (T47D) | GI50 (COLO 205) | GI50 (SW-620) | GI50 (HOP-92) | GI50 (HCC 2998) | GI50 (SK-MEL-5) | GI50 (CCRF-CEM) | GI50 (Malme-3M)
1 | Nc1c(/C=C/c2cc3cc(C4=NCCN4)ccc3o2)[nH]c2cc(C3=NCCN3)ccc12 | 66.2 µM (inactive) | 41.3 µM (inactive) | 43 µM (inactive) | 32.7 µM (inactive) | 43.6 µM (inactive) | 40 µM (inactive) | 46.7 µM (inactive) | 41.6 | 38.3 µM (inactive) | 41.5 µM (inactive) | 34.2 µM (inactive) | 46.5 µM (inactive) | 41.3 µM (inactive) | 34.4 µM (inactive) | 99.8 µM (inactive) | 32.4 µM (inactive) | 30.8 µM (inactive) | – | –
2 | N=C(N)NCCCC(NC(=O)OCCCCCn1ccc(N)nc1=O)C(=O)O (configuration not stated) | > 100 µM (inactive) | > 100 µM (inactive) | > 100 µM (inactive) | > 100 µM (inactive) | > 100 µM (inactive) | > 100 µM (inactive) | > 100 µM (inactive) | > 100 | > 100 µM (inactive) | > 100 µM (inactive) | > 100 µM (inactive) | > 100 µM (inactive) | > 100 µM (inactive) | > 100 µM (inactive) | > 100 µM (inactive) | > 100 µM (inactive) | – | > 100 µM (inactive) | –
3 | COc1ccc2o/c(=N\c3ccc(F)cc3)c(C(N)=O)cc2c1 | 38.5 µM (inactive) | > 100 µM (inactive) | 12.4 µM (inactive) | > 100 µM (inactive) | > 100 µM (inactive) | – | 43 µM (inactive) | > 100 | 45.6 µM (inactive) | 64.3 µM (inactive) | 29.1 µM (inactive) | 19.4 µM (inactive) | > 100 µM (inactive) | > 100 µM (inactive) | 27.4 µM (inactive) | > 100 µM (inactive) | > 100 µM (inactive) | > 100 µM (inactive) | 47.1 µM (inactive)
4 | Nc1ncc2c(n1)-c1ccccc1OC2NC1CC1 (configuration not stated) | > 100 µM (inactive) | – | > 100 µM (inactive) | > 100 µM (inactive) | > 100 µM (inactive) | > 100 µM (inactive) | > 100 µM (inactive) | > 100 | > 100 µM (inactive) | > 100 µM (inactive) | – | > 100 µM (inactive) | > 100 µM (inactive) | > 100 µM (inactive) | > 100 µM (inactive) | – | > 100 µM (inactive) | > 100 µM (inactive) | –
5 | O=C(Nc1ccc(Cl)cc1)C(=O)C1=C(O)c2ccccc2OC1 | > 100 µM (inactive) | > 100 µM (inactive) | – | > 100 µM (inactive) | > 100 µM (inactive) | > 100 µM (inactive) | > 100 µM (inactive) | > 100 | > 100 µM (inactive) | > 100 µM (inactive) | – | > 100 µM (inactive) | > 100 µM (inactive) | > 100 µM (inactive) | > 100 µM (inactive) | > 100 µM (inactive) | > 100 µM (inactive) | > 100 µM (inactive) | 0.665 µM (active)
6 | O=C(c1ccccc1)N1CCN(C(=S)N(C(=O)c2ccccc2)c2ccccc2)C1=S | 13.3 µM (inactive) | 2.41 µM (inactive) | – | 17.5 µM (inactive) | 3.85 µM (inactive) | 2.62 µM (inactive) | 3.45 µM (inactive) | 2.18 | 2.47 µM (inactive) | 5.26 µM (inactive) | 10.3 µM (inactive) | 4.68 µM (inactive) | 3.28 µM (inactive) | 3.31 µM (inactive) | 6.37 µM (inactive) | 6.5 µM (inactive) | 13.5 µM (inactive) | 2.56 µM (inactive) | 5.13 µM (inactive)
7 | CC1(N2CCOCC2)CC2C(=[N+]1[O-])CCC/C2=N/O (configuration not stated) | > 100 µM (inactive) | > 100 µM (inactive) | > 100 µM (inactive) | > 100 µM (inactive) | > 100 µM (inactive) | > 100 µM (inactive) | > 100 µM (inactive) | > 100 | > 100 µM (inactive) | > 100 µM (inactive) | > 100 µM (inactive) | > 100 µM (inactive) | – | > 100 µM (inactive) | – | > 100 µM (inactive) | > 100 µM (inactive) | > 100 µM (inactive) | > 100 µM (inactive)
8 | CCN(CC)COC(=S)S | > 100 µM (inactive) | 38 µM (inactive) | – | 30.1 µM (inactive) | > 94.6 µM (inactive) | 90.6 µM (inactive) | > 78 µM (inactive) | > 100 | > 67 µM (inactive) | > 100 µM (inactive) | 48.8 µM (inactive) | > 100 µM (inactive) | 78 µM (inactive) | 24.2 µM (inactive) | > 100 µM (inactive) | > 49.9 µM (inactive) | 21.6 µM (inactive) | 0.0162 µM (active) | 55.8 µM (inactive)
9 | Nc1nc(N)c2cc(S(=O)(=O)c3ccc4ccccc4c3)ccc2n1 | 6.03 µM (inactive) | 0.541 µM (active) | – | 0.573 µM (active) | 11.7 µM (inactive) | 3.33 µM (inactive) | 5.22 µM (inactive) | 3.93 | 4.83 µM (inactive) | 0.718 µM (active) | 4.63 µM (inactive) | 1.46 µM (inactive) | – | – | 5.86 µM (inactive) | > 100 µM (inactive) | 11.9 µM (inactive) | – | 14.4 µM (inactive)
